Results as given in patent EP3656762A1, “COMPOUNDS FOR THE TREATMENT OF NF-KB-RELATED DISEASES OR DISORDERS” (Instituto Biomar S.A., priority 2018, dated 2020).

System: Experimental Autoimmune Encephalomyelitis (EAE)
Details: MOG35-55 induced EAE; i.p. daily from day 0; Compound 1 3 mg/kg, Cyclosporine A 10 mg/kg; score 0-8; mean ± SEM

## Cyclosporine A
  MaxES (Maximum EAE score): 3.0±0.1
